Measurements taken from US8853258B2, “C-linked hydroxamic acid derivatives useful as antibacterial agents” (Pfizer Inc., priority 2009, dated 2014).
In brackets after ≈: the same amount, converted by molar mass. Where two headings read alike, the source gives them in different places.

Experiments:
Assay type in all cases: cell-based
[1] = system: Escherichia coli EC-1: VOGEL, mouse virulent; assay: MIC determination (CLSI), EC-1; conditions: for MIC: Escherichia coli; for EC-1 MIC: Escherichia coli EC-1 VOGEL, mouse virulent
Protocol: (§1) The in vitro antibacterial activity of compounds described in the Examples was evaluated by minimum inhibitory concentration (MIC) testing according to Clinical and Laboratory Standards Institute (CLSI, formerly NCCLS) guidelines. See: Clinical and Laboratory Standards Institute. Methods for Dilution Antimicrobial Susceptibility Tests for Bacteria that Grow Aerobically; Approved Standard-Seventh Edition. CLSI document M7-A7 [ISBN 1-56238-587-9]. Clinical and Laboratory Standards Institute, 940 West Valley Road, Suite 1400, Wayne, Pa. 19087-1898 USA, 2006; also Clinical and Laboratory Standards Institute. Performance Standards for Antimicrobial Susceptibility Testing; Eighteenth Informational Supplement. CLSI document M100-S18 [ISBN1-56238-653-0]. Clinical and Laboratory Standards Institute.
(§2) The following bacterial strains were used in these MIC determinations:
3) Escherichia coli EC-1: VOGEL, mouse virulent labeled as EC-1 in Tables 1, 2 and 3;

[2] = system: Klebsiella pneumoniae: Ciprofloxacin-resistant isolate, ESBL, clinical isolate (KP-3700); assay: MIC determination (CLSI), KP-3700
Protocol: as §1, §2
4) Klebsiella pneumoniae: Ciprofloxacin-resistant isolate, expresses extended-spectrum beta-lactamases (ESBL), clinical isolate, labeled as KP-3700 in Tables 1, 2, and 3.

[3] = system: Pseudomonas aeruginosa UI-18: Wild-type (PA-7); assay: MIC determination (CLSI), PA-7; conditions: for MIC: Pseudomonas aeruginosa; for PA-7 MIC: Pseudomonas aeruginosa UI-18 wild-type PA-7
Protocol: as §1, §2
1) Pseudomonas aeruginosa UI-18: Wild-type, labeled as PA-7 in Tables 1, 2 and 3;

[4] = system: Acinetobacter baumanii/haemolyticus: Multidrug-resistant clinical isolate (AB-3167); assay: MIC determination (CLSI), AB-3167; conditions: for MIC: Acinetobacter baumannii; for AB-3167 MIC: Acinetobacter baumanii/haemolyticus multidrug-resistant clinical isolate AB-3167
Protocol: as §1, §2
2) Acinetobacter baumanii/haemolyticus: Multidrug-resistant clinical isolate labeled as AB-3167 in Tables 1, 2 and 3;

CC(CCc1ccc(OCCC2CC2)cc1)(C(=O)NO)S(C)(=O)=O (racemic) [Example 17, (+/−)-4-[4-(2-Cyclopropylethoxy)phenyl]-N-hydroxy-2-methyl-2-(methylsulfonyl)butanamide]
MIC ([1]; read-out: EC-1: (MIC)): 32 µg/mL (≈ 90 µM)
KP-3700 MIC [2]: ≧64 mg/L
MIC ([3]; Table 1, MIC, read-out: PA-7 (MIC)): 8 µg/mL (≈ 22.5 µM)
MIC ([4]; Table 1, MIC, read-out: AB-3167 (MIC)): 32 µg/mL (≈ 90 µM)

Cn1cc(-c2ccc(CCC(C)(C(=O)NO)S(C)(=O)=O)cc2)cn1 (stereo not shown) [Example 101]
EC-1 MIC [1]: 32 µg/mL
KP-3700 MIC [2]: 32 µg/mL
PA-7 MIC [3]: 8 µg/mL
AB-3167 MIC [4]: ≧64 mg/L

CC(CCc1ccc(-c2ccc(F)cc2)cc1)(C(=O)NO)S(C)(=O)=O (stereo not shown) [Example 27]
EC-1 MIC [1]: 2 µg/mL
KP-3700 MIC [2]: 4 µg/mL
PA-7 MIC [3]: 1 µg/mL
AB-3167 MIC [4]: 8 µg/mL

Cc1cc(C)cc(COc2ccc(CCC(C)(C(=O)NO)S(C)(=O)=O)cc2)c1 (stereo not shown) [Example 257, 4-{4-[(3,5-dimethylbenzyl)oxy]phenyl}-N-hydroxy-2-methyl-2-(methylsulfonyl)butanamide]
MIC ([1]; read-out: EC-1 MIC): 4 µg/mL (≈ 9.86 µM)
KP-3700 MIC [2]: 32 µg/mL
MIC ([3]; Table 3, read-out: PA-7 MIC): 32 µg/mL (≈ 78.9 µM)
MIC ([4]; Table 3, read-out: AB-3167 MIC): ≥ 64 µg/mL

CC(CCc1ccc(-c2ccc(C(N)=O)cc2)cc1)(C(=O)NO)S(C)(=O)=O (stereo not shown) [Example 96]
EC-1 MIC [1]: ≧64 mg/L
KP-3700 MIC [2]: ≧64 mg/L
PA-7 MIC [3]: 8 µg/mL
AB-3167 MIC [4]: ≧64 mg/L

CC(CCc1ccc(-c2ccc(CCN)cc2)cc1)(C(=O)NO)S(C)(=O)=O (stereo not shown) [Example 114]
EC-1 MIC [1]: ≧64 mg/L
KP-3700 MIC [2]: ≧64 mg/L
PA-7 MIC [3]: 16 µg/mL
AB-3167 MIC [4]: ≧64 mg/L

CC(CCc1ccc(-c2ccc(C#N)cn2)cc1)(C(=O)NO)S(C)(=O)=O (stereo not shown) [Example 129]
EC-1 MIC [1]: 16 µg/mL
KP-3700 MIC [2]: ≧64 mg/L
PA-7 MIC [3]: 4 µg/mL
AB-3167 MIC [4]: ≧64 mg/L

CC(CCc1ccc(-c2ccc(C#N)c(C#N)c2)cc1)(C(=O)NO)S(C)(=O)=O (stereo not shown) [Example 125]
EC-1 MIC [1]: 8 µg/mL
KP-3700 MIC [2]: 32 µg/mL
PA-7 MIC [3]: 4 µg/mL
AB-3167 MIC [4]: ≧64 mg/L

CCCOc1ccc(CCC(C)(C(=O)NO)S(C)(=O)=O)cc1 (stereo not shown) [Example 237, N-hydroxy-2-methyl-2-(methylsulfonyl)-4-(4-propoxyphenyl)butanamide]
MIC ([1]; read-out: EC-1 MIC): 32 µg/mL (≈ 97.1 µM)
KP-3700 MIC [2]: ≧64 mg/L
MIC ([3]; Table 3, read-out: PA-7 MIC): 8 µg/mL (≈ 24.3 µM)
MIC ([4]; Table 3, read-out: AB-3167 MIC): ≥ 64 µg/mL

COc1ccc(OC)c(-c2ccc(CCC(C)(C(=O)NO)S(C)(=O)=O)cc2)c1 (stereo not shown) [Example 48]
EC-1 MIC [1]: 16 µg/mL
KP-3700 MIC [2]: ≧64 mg/L
PA-7 MIC [3]: ≧64 mg/L
AB-3167 MIC [4]: 16 µg/mL

CC(CCc1ccc(OCc2nc(-c3cccc(F)c3F)no2)cc1)(C(=O)NO)S(C)(=O)=O (stereo not shown) [Example 253, 4-(4-{[3-(2,3-difluorophenyl)-1,2,4-oxadiazol-5-yl]methoxy}phenyl)-N-hydroxy-2-methyl-2-(methylsulfonyl)butanamide]
MIC ([1]; read-out: EC-1 MIC): 8 µg/mL (≈ 16.6 µM)
KP-3700 MIC [2]: ≧64 mg/L
MIC ([3]; Table 3, read-out: PA-7 MIC): 32 µg/mL (≈ 66.5 µM)
MIC ([4]; Table 3, read-out: AB-3167 MIC): ≥ 64 µg/mL

Cc1ncccc1COc1ccc(CCC(C)(C(=O)NO)S(C)(=O)=O)cc1 (stereo not shown) [Example 245, N-hydroxy-2-methyl-4-{4-[(2-methylpyridin-3-yl)methoxy]phenyl}-2-(methylsulfonyl)butanamide]
MIC ([1]; read-out: EC-1 MIC): ≥ 64 µg/mL
KP-3700 MIC [2]: ≧64 mg/L
MIC ([3]; Table 3, read-out: PA-7 MIC): 32 µg/mL (≈ 81.5 µM)
MIC ([4]; Table 3, read-out: AB-3167 MIC): ≥ 64 µg/mL

CC(CCc1ccc(-c2cc(Cl)ccc2F)cc1)(C(=O)NO)S(C)(=O)=O (racemic) [Example 90]
EC-1 MIC [1]: 8 µg/mL
KP-3700 MIC [2]: 8 µg/mL
PA-7 MIC [3]: 8 µg/mL
AB-3167 MIC [4]: 8 µg/mL

CC(CCc1ccc(-c2ccc3c(c2)CCO3)cc1)(C(=O)NO)S(C)(=O)=O (racemic) [Example 74]
EC-1 MIC [1]: 1 µg/mL
KP-3700 MIC [2]: 4 µg/mL
PA-7 MIC [3]: 1 µg/mL
AB-3167 MIC [4]: 16 µg/mL

CC(CCc1ccc(OCc2ccc(C#N)cc2)cc1)(C(=O)NO)S(C)(=O)=O (stereo not shown) [Example 233, 4-{4-[(4-cyanobenzyl)oxy]phenyl}-N-hydroxy-2-methyl-2-(methylsulfonyl)butanamide]
MIC ([1]; read-out: EC-1 MIC): 4 µg/mL (≈ 9.94 µM)
KP-3700 MIC [2]: 16 µg/mL
MIC ([3]; Table 3, read-out: PA-7 MIC): 4 µg/mL (≈ 9.94 µM)
MIC ([4]; Table 3, read-out: AB-3167 MIC): ≥ 64 µg/mL

Cc1cc(-c2ccc(CCC(C)(C(=O)NO)S(C)(=O)=O)cc2)cnc1N(C)C (stereo not shown) [Example 37]
EC-1 MIC [1]: 16 µg/mL
KP-3700 MIC [2]: ≧64 mg/L
PA-7 MIC [3]: 16 µg/mL
AB-3167 MIC [4]: ≧64 mg/L
